Laboratory results: patent US11453672B2, “Substituted pyrazolo[1,5-a]pyrimidines as tropomyosin receptor kinase inhibitors” (SHENZHEN TARGETRX, INC., priority 2017, dated 2022)

Tests used:
[1] = Metabolic stability evaluation, rat liver microsomes; type: in vitro ADME; details: SD, pH 7.4, 1 μM compound, 0.5 mg/mL protein, 37° C.; for microsomal CLint at 1 μM: read-out: rat liver microsome CLint; for half-life at 1 μM: read-out: rat liver microsome t1/2
Experimental: (§1) Microsomal experiments: human liver microsomes: 0.5 mg/mL, Xenotech; rat liver microsomes: 0.5 mg/mL, Xenotech; coenzyme (NADPH/NADH): 1 mM, Sigma Life Science; magnesium chloride: 5 mM, 100 mM phosphate buffer agent (pH 7.4).
(§2) Preparation of the stock solution: A certain amount of the powder of the example compounds was accurately weighed and dissolved to 5 mM with DMSO.
(§3) Preparation of phosphate buffer (100 mM, pH 7.4): 150 mL of pre-prepared 0.5 M potassium dihydrogen phosphate solution was mixed with 700 mL of pre-prepared 0.5 M dipotassium hydrogen phosphate solution, and the pH of the mixture was adjusted with 0.5 M dipotassium hydrogen phosphate solution to 7.4. It was diluted 5 times with ultrapure water before use, and magnesium chloride was added to obtain a phosphate buffer (100 mM) containing 100 mM potassium phosphate, 3.3 mM magnesium chloride, and a pH of 7.4.
(§4) A solution of NADPH regeneration system (containing 6.5 mM NADP, 16.5 mM G-6-P, 3 U/mL G-6-P D, 3.3 mM magnesium chloride) was prepared and placed on wet ice before use.
(§5) Preparation of stop solution: acetonitrile solution containing 50 ng/mL propranolol hydrochloride and 200 ng/mL tolbutamide (internal standard). 25057.5 μL of phosphate buffer (pH 7.4) was taken into a 50 mL centrifuge tube, 812.5 μL of human liver microsomes was added, and mixed uniformly to obtain a liver microsome dilution with a protein concentration of 0.625 mg/mL. 25057.5 μL of phosphate buffer (pH 7.4) was taken into a 50 mL centrifuge tube, and 812.5 μL of SD rat liver microsomes was added, and mixed uniformly to obtain a liver microsome dilution with a protein concentration of 0.625 mg/mL.
(§6) Incubation of the sample: The stock solutions of the corresponding compounds were diluted to 0.25 mM as working solutions with an aqueous solution containing 70% acetonitrile before use. 398 μL of human liver microsomes or rat liver microsome dilutions were added to 96-well incubation plates (N=2), and 2 μL of 0.25 mM working solutions were added and mixed uniformly, respectively.
(§7) Determination of metabolic stability: 300 μL of pre-cooled stop solution was added to each well of a 96-well deep well plate, which was placed on ice as a stop plate. The 96-well incubation plate and the NADPH regeneration system were placed in a 37° C. water bath, shaken at 100 rpm, and pre-incubated for 5 min. 80 μL of the incubation solution was removed from each well of the incubation plate, added to the stop plate, and mixed uniformly, and 20 μL of the NADPH regeneration system solution was supplemented as a sample at 0 min. Then, 80 μL of the NADPH regeneration system solution was added to each well of the incubation plate to start the reaction and the timing was started. […] 100 μL of the reaction solution was removed at 10, 30, and 90 min of the reaction, respectively, and added to the stop plate, and the reaction was terminated by vortexing for 3 min. The stop plate was centrifuged at 5000×g for 10 min at 4° C. 100 μL of the supernatant was removed into a 96-well plate to which 100 μL of distilled water was previously added, mixed uniformly, and sample analysis was performed by LC-MS/MS.
(§8) Data analysis: The peak areas of the corresponding compounds and the internal standard were detected by LC-MS/MS system, and the ratios of the peak areas of the compounds to the internal standard were calculated.

[2] = Metabolic stability evaluation, human liver microsomes; type: in vitro ADME; details: pH 7.4, 1 μM compound, 0.5 mg/mL protein, 37° C.; for microsomal CLint at 1 μM: read-out: human liver microsome CLint; for half-life at 1 μM: read-out: human liver microsome t1/2
Experimental: as §1, §2, §3, §4, §5, §6, §7, §8

Row | microsomal CLint at 1 μM [1] | half-life at 1 μM [1] | microsomal CLint at 1 μM [2] | half-life at 1 μM [2] | SMILES
1 | 15.8 µL/min/mg | 1.46 h | 20.6 µL/min/mg | 1.12 h | [2H]C1([2H])CC([2H])([2H])[C@@]([2H])(c2cc(F)ccc2F)N1c1ccn2ncc(NC(=O)N3CC[C@H](O)C3)c2n1 [Compound L-7, (S)—N-(5-((R)-2-(2,5-difluorophenyl)pyrrolidin-1-yl-2,3,3,5,5-d2)pyrazolo[1,5-a]pyrimidin-3-yl)-3-hydroxypyrrolidine-1-carboxamide]
2 | 31.7 µL/min/mg | 1.06 h | 21.3 µL/min/mg | 1.08 h | O=C(Nc1cnn2ccc(N3CCC[C@@H]3c3cc(F)ccc3F)nc12)N1CC[C@H](O)C1 [LOXO-101, (S)—N-(5-((R)-2-(2,5-difluorophenyl)-pyrrolidin-1-yl)pyrazolo[1,5-a]pyrimidin-3-yl)-3-hydroxypyrrolidine-1-carboxamide, reference compound]
3 | – | – | 21 µL/min/mg | 1.1 h | [2H]C1([2H])C[C@H](c2cc(F)ccc2F)N(c2ccn3ncc(NC(=O)N4CC[C@H](O)C4)c3n2)C1 [Compound L-4, (S)—N-(5-((R)-2-(2,5-difluorophenyl)pyrrolidin-1-yl-4,4-d2)pyrazolo[1,5-a]pyrimidin-3-yl)-3-hydroxypyrrolidine-1-carboxamide]

The remaining lines, values behind:

Row | SMILES | microsomal CLint at 1 μM [1] | half-life at 1 μM [1] | microsomal CLint at 1 μM [2] | half-life at 1 μM [2]
4 | [2H]C1([2H])C[C@H](O)C([2H])([2H])N1C(=O)Nc1cnn2ccc(N3CCC([2H])([2H])C3([2H])c3cc(F)ccc3F)nc12 (stereo in doubt) [Compound L-3, (S)—N-(5-((R)-2-(2,5-difluorophenyl)pyrrolidin-1-yl-2,3,3-d3)-pyrazolo[1,5-a]pyrimidin-3-yl)-3-hydroxypyrrolidine-2,2,5,5-d4-1-carboxamide] | 16.8 µL/min/mg | 1.38 h | 19.1 µL/min/mg | 1.21 h
5 | [2H]C1([2H])C[C@H](O)C([2H])([2H])N1C(=O)Nc1cnn2ccc(N3CCC[C@@H]3c3cc(F)ccc3F)nc12 [Compound L-1, (S)—N-(5-((R)-2-(2,5-difluorophenyl)pyrrolidin-1-yl)-pyrazolo[1,5-a]pyrimidine-3-yl)-3-hydroxypyrrolidine-2,2,5,5-d4-1-carboxamide] | 19.2 µL/min/mg | 1.2 h | 18.2 µL/min/mg | 1.27 h
